Like-named read-outs stand apart in the source and are kept apart here.

Assay [1] deals with PC-3 (human prostate carcinoma cells). As to the kind of experiment: MTT cell proliferation and viability assay, PC-3. The format is cell-based. The conditions noted are these: Table 3, 72 h, read-out: Inhibition Concentration (IC50) μM PC-3 (Prostate). The procedure: (§1) Normal human fibroblast cell lines (GM9503 and GM8399) and human carcinoma cell lines MCF-7, A549, HCT116, SKOV-3 and PC-3 were maintained in DMEM (Dulbeco's Modified Essential Medium) supplemented with 10% FBS (Fetal Bovine Serum). In addition, murine leukemia MDAY-D2 cells were maintained in RPMI 1640 media supplemented with 5% FBS. All media were supplemented with 100 […] (all from Hyclone, Logan, Utah). Cells were incubated in a humidified air atmosphere containing 5% CO2 at 37° C.
(§2) Cell growth and viability were measured using the 3-(4,5-dimethythiazol-2-yl)-2,5-diphenyl tetrazolium bromide (MTT) reduction assay. MTT reagent (Sigma, St. Louis, Mo.) was prepared at 5 mg/ml in ddH2O (5× solution), filter sterilized and stored in the dark at −20° C.
(§3) To determine the optimal number of cells to seed per well, preliminary experiments were conducted examining increasing cell densities in 96 well plates. Cell were seeded at various densities and examined under the microscope after 96 h. Based on these experiments and growth curve analyses, optimal cell densities were selected for each cell line. In brief, exponentially growing cells were harvested and 100 μL of cell suspension containing approximately 2000 cells was plated in 96-well microtiter plates. After 24 hours of incubation to allow for cell attachment, cells were treated with varying concentrations of test samples in medium (60 μL/well) supplemented with 5% FBS and incubated for 72 h at 37° C. under 5% CO2. Three hours after the addition of MTT, the amount of formazan formed was measured spectrophotometrically at 570 nm with a Spectramax Plus 384 plate reader.
(§4) To assess the effects of the novel compounds on growth and viability, GM9503 (normal human fibroblast cells; 2.08×10^3 cells/well), GM8399 (normal human fibroblast cells; 2.04×10^3 cells/well), A549 (human lung carcinoma cells; 2.05×10^3 cells/well), HCT116 (human colon carcinoma cells; 2.19×10^3 cells/well), MCF-7 (human breast carcinoma cells; 2.19×10^3 cells/well), SKOV-3 (human ovarian carcinoma cells; 2.10×10^3 cells/well), PC-3 (human prostate carcinoma cells; 2.08×10^3 cells/well) and MDAY-D2 (murine leukemia cells; 2.5×10^3 cells/well) were seeded in 96 well plates in supplemented medium. Twenty-four hours post-seeding, cells were treated with either DMEM supplemented with 5% FBS (as a control) or with compounds (IIb), (Ie) and (Id) at increasing concentrations. After incubation for 72 h, cell growth and viability were measured. Each compound was tested in triplicate and the data shown in Tables 2-4 represent the mean of viable cells compared to medium control.

The subject of assay [2] is HCT116 (human colon carcinoma cells). As to the kind of experiment: MTT cell proliferation and viability assay, HCT116. The format is cell-based. To be noted: for IC50: HCT-116, Table 3, 72 h, read-out: Inhibition Concentration (IC50) μM HCT116 (Colon); for EC50: HCT-116, Table 2, 72 h. On the procedure: as §1, §2, §3, §4
The subject of assay [3] is GM9503 (normal human fibroblast cells). The assay can be described thus: MTT cell proliferation and viability assay, GM9503. The format is cell-based. To be noted: for IC50: Table 4, comparative toxicity, 72 h, read-out: Inhibition Concentration (IC50) μM GM9503 (Normal human fibroblast); for EC50: Table 2, 72 h, read-out: Human (EC50) μM GM9503 (Normal Skin Fibroblast). On the procedure:
as §1, §2, §3, §4

Assay [4] deals with A549 (human lung carcinoma cells). As to the kind of experiment: MTT cell proliferation and viability assay, A549. The format is cell-based. The conditions noted are these: for IC50: Table 3, 72 h, read-out: Inhibition Concentration (IC50) μM A549 (Lung); for EC50: Table 2, 72 h. The procedure:
as §1, §2, §3, §4

Assay [5] deals with MCF-7 (human breast carcinoma cells). As to the kind of experiment: MTT cell proliferation and viability assay, MCF-7. To be noted: for IC50: MCF7, Table 3, 72 h, read-out: Inhibition Concentration (IC50) μM MCF-7 (Breast); for EC50: MCF7, Table 2, 72 h. The format is cell-based. On the procedure: as §1, §2, §3, §4
Assay [6] relates to SKOV-3 (human ovarian carcinoma cells). As to the kind of experiment: MTT cell proliferation and viability assay, SKOV-3. The format is cell-based. The conditions noted are these: SK-OV-3, Table 3, 72 h, read-out: Inhibition Concentration (IC50) μM SKOV-3 (Ovarian). The procedure:
as §1, §2, §3, §4

The subject of assay [7] is GM8399 (normal human fibroblast cells). The assay can be described thus: MTT cell proliferation and viability assay, GM8399. The conditions noted are these: Table 4, comparative toxicity, 72 h, read-out: Inhibition Concentration (IC50) μM GM8399 (normal human fibroblast). The format is cell-based. The procedure: as §1, §2, §3, §4
The next assay deals with B16-BL6. The conditions noted are these: Banskota et al., J Ethnopharmacol 2002; read-out: EC50 against B16-BL6; cited from earlier work.
For assay [8], the system named is Human colon carcinoma cell line HCT116. As to the kind of experiment: Mechanism of action: microscopy of treated HCT116 cells over time. The conditions noted are these: 30 μM; for cell morphology (mechanism of cell death): imaged at 2-16 h, 63x magnification. The format is cell-based. On the procedure:
Human colon carcinoma cell line HCT116 was treated with compounds (IIb), (Ie) and (Id) and observed over a time period to determine the mechanism of cell death. The experiment was conducted as follows:
HCT116 cells were seeded and treated with each compound. At each time point, the cells were imaged using a neutral microscope at 63× magnification prior to fixing. The time points were 2, 4, 6, 8, 12, and 16 hours.
This may potentially be caused by a population doubling at this time-point.

Assay [9] relates to MDAY-D2 (murine leukemia cells). As to the kind of experiment: MTT cell proliferation and viability assay, MDAY-D2. The format is cell-based. The procedure: as §1, §2, §3, §4
In another assay the test system is B-16 melanoma cell line. The assay can be described thus: [3H]-thymidine incorporation, in vitro anticancer activity. The format is cell-based. The conditions noted are these: B16, 24 h + 24 h incubation. The procedure:
The cell lines were maintained in EMEM medium supplemented with 10% FCS, 0.1% sodium bicarbonate and 12 mM glutamine. In a typical procedure, 1×10^4 cells were seeded into each of 96 well plate in 90 μL volume of medium. The plates were incubated for 24 h in the presence of CO2 to allow for cell attachment. After 24 h, test compounds were evaluated at five 10 fold dilutions from 1:10, 1:100, 1:1000, 1:10000 and 1:100000. To each test well 100 μL of test compound solution was added and the medium with vehicle was added to control wells and the plates were further incubated. After 24 h of incubation, 10 μL of [3H]-thymidine was added to each well to obtain a 1 μCi concentration per well and incubated for a further 24 h. The plates were terminated, cells harvested and read by microbeta plate reader.

[10] abbreviates: Mus musculus, MDAY-D2, Table 2, 72 h.

Take `CC(=O)O[C@H]1C(=O)[C@@]2(C)[C@H]([C@H](OC(=O)c3ccccc3)[C@]3(O)C[C@H](OC(=O)[C@H](O)[C@@H](NC(=O)c4ccccc4)c4ccccc4)C(C)=C1C3(C)C)[C@]1(OC(C)=O)CO[C@@H]1C[C@@H]2O` [paclitaxel, reference compound]: the IC50 in [1] stood at 1.32 µM; in [2] it was 0.59 µM; in [3] (Homo sapiens, Fibroblast), 0.7 µM; in [4], 0.69 µM; in assay [5], 11.7 µM; in [6], 0.75 µM. Besides, the IC50 in [7] came out at 2.1 µM.

Regarding `O=C(/C=C/c1ccc(O)c(O)c1)OCCc1ccccc1` [phenethyl caffeate], the EC50 in the assay with B16-BL6 is 3.16 µM.

Consider `O=C(/C=C/c1ccccc1)OCC(O)COC(=O)/C=C/c1ccc(O)c(O)c1` (stereo not shown) [Compound (Ie), (E)-3-(cinnamoyloxy)-2-hydroxypropyl 3-(3,4-dihydroxypheyl)acrylate], for which the IC50 in [1] was 9.04 µM; in assay [2], 27.9 µM; in [3] (Homo sapiens, Fibroblast), 37 µM; in [4], 33.2 µM; in assay [5], 33 µM; in [6] it was 16.5 µM. For the same molecule, the IC50 in [7] was found to be 23 µM. In addition, the “cell morphology (mechanism of cell death)” value (shortened to “cell morphology”) in assay [8] is recorded as “exhibited the characteristic membrane blebbing morphology commonly seen during apoptosis”. Besides, the concentration giving a half-maximal response (EC50) came to 59.2 µM in assay [2], 0.64 µM in assay [4], 25.9 µM in [5] and 1.5 µM in assay [9] (setting [10]).

As to `COc1ccc(/C=C/C(=O)OCC(O)COC(=O)/C=C/c2ccccc2)cc1OC` (stereo not shown) [Compound (Id), (E)-3-(cinnamoyloxy)-2-hydroxypropyl 3-(3,4-dimethoxyphenyl) acrylate], the IC50 in [1] was 9.07 µM; in assay [2], 11.5 µM; in assay [3] (Homo sapiens, Fibroblast) it was 60 µM; in assay [4], 18.2 µM; in assay [5], 85.2 µM; in [6], 22 µM. The IC50 in assay [7] was determined as 16 µM. The EC50 in the assay with B-16 melanoma cell line was determined as 1.08 µM; in assay [2] it was 102 µM; in [4], 0.59 µM; in assay [5], 72.2 µM; in assay [9] (setting [10]), 5 µM. For the same molecule, the “cell morphology” value in assay [8] is “exhibited the characteristic membrane blebbing morphology commonly seen during apoptosis”.

For the molecule `CC(=O)OC(COC(=O)/C=C/c1ccc(O)cc1)COC(=O)/C=C/c1ccc(O)cc1` [(2E,2′E)-2-acetoxypropane-1,3-diyl bis(3-(4-hydroxyphenyl)acrylate)], the EC50 with B16-BL6 is 81.9 µM.

With `O=C(/C=C/c1ccc(O)c(O)c1)OCC(O)COC(=O)/C=C/c1ccc(O)c(O)c1` [Compound (IIb), (2E,2′E)-2-hydroxypropane-1,3-diyl bis(3-(3,4-dihroxyphenyl) acrylate], the IC50 in [1] was determined as 6.76 µM; in assay [2], 27 µM; in [3] (Homo sapiens, Fibroblast), 71.2 µM; in [4] it was 21 µM; in assay [5] it was 74.5 µM; in assay [6], 15.8 µM. Further, the IC50 in assay [7] was 38 µM. The EC50 in the assay on B-16 melanoma cell line turned out to be 6.12 µM; in assay [3] (Homo sapiens, Fibroblast), 57.9 µM; in [4] it was 2.17 µM; in assay [5], 1 µM; in assay [9] (setting [10]), 3.4 µM. The “relative aggressiveness of apoptosis induction” value in assay [8] (compared among (IIb), (Ie), (Id)) is reported as “the most aggressive”. Also, the “cell morphology” value in [8] is “exhibited the characteristic membrane blebbing morphology commonly seen during apoptosis”.

In the case of `O=C(/C=C/c1ccc(O)c(O)c1)OCc1ccccc1` [Benzyl caffeate, benzyl caffeate], in the assay on B16-BL6, the EC50 is 2.03 µM.

On to `O=C(/C=C/c1ccc(O)c(O)c1)OCC=Cc1ccccc1` [cinnamyl caffeate], for which the EC50 with B16-BL6 is 1.92 µM.

In the case of `COc1cc(/C=C/C(=O)OCC(COC(=O)/C=C/c2ccc(O)cc2)OC(C)=O)ccc1O` (stereo not shown) [(E)-2-acetoxy-3-(((E)-3-(4-hydroxy-3-methoxyphenyl)acryloyl)oxy)propyl 3-(4-hydroxyphenyl)acrylate], in the assay on B16-BL6, the EC50 was 66 µM.

With `C[S+](C)[O-]` [DMSO], the EC50 amounted to 20.3 µM in assay [3] and 43.6 µM in [9] (Table 2, 72 h).

Turning to `O=C(O)/C=C/c1ccc(O)c(O)c1` [caffeic Acid, caffeic acid, reference compound], the IC50 stood at 22 µM in [3] (Homo sapiens, Fibroblast) and 24 µM in assay [7].

Broadly, the EC50 is the concentration needed to bring the measured effect to its halfway point.

These data come from US10052301B2, “Derivatives of propane diyl dicinnamate” (ORX PHARMACEUTICAL CORPORATION, priority 2009, dated 2018).
